Reference: ChEMBL document CHEMBL1150044, “Brominated polyacetylenes from the Philippines sponge Diplastrella sp” (J Nat Prod, 2003)
Counter-ions that a name gives are not always drawn.

Molecular target: Human immunodeficiency virus type 1 integrase (Human immunodeficiency virus 1, UniProt Q7ZJM1)
Experiment: Inhibition of HIV1 recombinant integrase

Sequence of Human immunodeficiency virus type 1 integrase (Q7ZJM1 whole entry): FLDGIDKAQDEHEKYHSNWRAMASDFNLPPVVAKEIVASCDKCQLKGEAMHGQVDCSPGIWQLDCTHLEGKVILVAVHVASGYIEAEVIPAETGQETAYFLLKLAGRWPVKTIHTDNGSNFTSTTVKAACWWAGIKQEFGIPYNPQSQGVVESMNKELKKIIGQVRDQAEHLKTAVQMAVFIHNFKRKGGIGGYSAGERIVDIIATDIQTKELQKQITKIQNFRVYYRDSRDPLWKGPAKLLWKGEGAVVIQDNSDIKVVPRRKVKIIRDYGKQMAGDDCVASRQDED

Row | IC50 [µM] | Compound
1 | 78.3 | O=S(=O)(O)OCCC#CC#CCCCCC#CC#C/C=C/Br
2 | 74.4 | O=S(=O)(O)OCC(O)C#CC#CCCCCCCC#C/C=C/Br (stereo not drawn)
3 | > 155 | OCC(O)C#CC#CCCCCCCC#C/C=C/Br (stereo not drawn) [DIPLYNE A]
4 | > 155 | OCC(O)C#CC#CCCCCCCC#C/C=C\Br (stereo not drawn) [DIPLYNE B]
5 | 73.7 | O=S(=O)(O)OCC(O)C#CC#CCCCCCCCC/C=C/Br (stereo not drawn) [DIPLYNE C SULFATE]
6 | > 153 | OCC(O)C#CC#CCCCCCCCC/C=C/Br (stereo not drawn) [DIPLYNE C]
7 | > 157 | OCC(O)C#CC#CCCCCC#CC#C/C=C/Br (stereo not drawn) [DIPLYNE D]
8 | > 156 | OCC(O)C#CC#CCCCC/C=C/C#C/C=C/Br (stereo not drawn) [DIPLYNE E]
